Results reported in patent US8394770B2 (priority 2007, dated 2013).
“And” between values parts separate entries of the source, which are not always exact repeats. Equal values may be shown once. “Also recorded” adds a separate entry of the source.

What was measured:
mice = test: In vivo toxicity / lethality test by injection into mice; conditions: injected
hNaV1.5 = hNaV1.5 (Homo sapiens, UniProt Q14524); test: Patch-clamp block of cardiac voltage-gated Na+ channel NaV1.5 expressed in Cos-7 cells; conditions: 10 nM
Sequence of hNaV1.5 (Q14524 whole entry): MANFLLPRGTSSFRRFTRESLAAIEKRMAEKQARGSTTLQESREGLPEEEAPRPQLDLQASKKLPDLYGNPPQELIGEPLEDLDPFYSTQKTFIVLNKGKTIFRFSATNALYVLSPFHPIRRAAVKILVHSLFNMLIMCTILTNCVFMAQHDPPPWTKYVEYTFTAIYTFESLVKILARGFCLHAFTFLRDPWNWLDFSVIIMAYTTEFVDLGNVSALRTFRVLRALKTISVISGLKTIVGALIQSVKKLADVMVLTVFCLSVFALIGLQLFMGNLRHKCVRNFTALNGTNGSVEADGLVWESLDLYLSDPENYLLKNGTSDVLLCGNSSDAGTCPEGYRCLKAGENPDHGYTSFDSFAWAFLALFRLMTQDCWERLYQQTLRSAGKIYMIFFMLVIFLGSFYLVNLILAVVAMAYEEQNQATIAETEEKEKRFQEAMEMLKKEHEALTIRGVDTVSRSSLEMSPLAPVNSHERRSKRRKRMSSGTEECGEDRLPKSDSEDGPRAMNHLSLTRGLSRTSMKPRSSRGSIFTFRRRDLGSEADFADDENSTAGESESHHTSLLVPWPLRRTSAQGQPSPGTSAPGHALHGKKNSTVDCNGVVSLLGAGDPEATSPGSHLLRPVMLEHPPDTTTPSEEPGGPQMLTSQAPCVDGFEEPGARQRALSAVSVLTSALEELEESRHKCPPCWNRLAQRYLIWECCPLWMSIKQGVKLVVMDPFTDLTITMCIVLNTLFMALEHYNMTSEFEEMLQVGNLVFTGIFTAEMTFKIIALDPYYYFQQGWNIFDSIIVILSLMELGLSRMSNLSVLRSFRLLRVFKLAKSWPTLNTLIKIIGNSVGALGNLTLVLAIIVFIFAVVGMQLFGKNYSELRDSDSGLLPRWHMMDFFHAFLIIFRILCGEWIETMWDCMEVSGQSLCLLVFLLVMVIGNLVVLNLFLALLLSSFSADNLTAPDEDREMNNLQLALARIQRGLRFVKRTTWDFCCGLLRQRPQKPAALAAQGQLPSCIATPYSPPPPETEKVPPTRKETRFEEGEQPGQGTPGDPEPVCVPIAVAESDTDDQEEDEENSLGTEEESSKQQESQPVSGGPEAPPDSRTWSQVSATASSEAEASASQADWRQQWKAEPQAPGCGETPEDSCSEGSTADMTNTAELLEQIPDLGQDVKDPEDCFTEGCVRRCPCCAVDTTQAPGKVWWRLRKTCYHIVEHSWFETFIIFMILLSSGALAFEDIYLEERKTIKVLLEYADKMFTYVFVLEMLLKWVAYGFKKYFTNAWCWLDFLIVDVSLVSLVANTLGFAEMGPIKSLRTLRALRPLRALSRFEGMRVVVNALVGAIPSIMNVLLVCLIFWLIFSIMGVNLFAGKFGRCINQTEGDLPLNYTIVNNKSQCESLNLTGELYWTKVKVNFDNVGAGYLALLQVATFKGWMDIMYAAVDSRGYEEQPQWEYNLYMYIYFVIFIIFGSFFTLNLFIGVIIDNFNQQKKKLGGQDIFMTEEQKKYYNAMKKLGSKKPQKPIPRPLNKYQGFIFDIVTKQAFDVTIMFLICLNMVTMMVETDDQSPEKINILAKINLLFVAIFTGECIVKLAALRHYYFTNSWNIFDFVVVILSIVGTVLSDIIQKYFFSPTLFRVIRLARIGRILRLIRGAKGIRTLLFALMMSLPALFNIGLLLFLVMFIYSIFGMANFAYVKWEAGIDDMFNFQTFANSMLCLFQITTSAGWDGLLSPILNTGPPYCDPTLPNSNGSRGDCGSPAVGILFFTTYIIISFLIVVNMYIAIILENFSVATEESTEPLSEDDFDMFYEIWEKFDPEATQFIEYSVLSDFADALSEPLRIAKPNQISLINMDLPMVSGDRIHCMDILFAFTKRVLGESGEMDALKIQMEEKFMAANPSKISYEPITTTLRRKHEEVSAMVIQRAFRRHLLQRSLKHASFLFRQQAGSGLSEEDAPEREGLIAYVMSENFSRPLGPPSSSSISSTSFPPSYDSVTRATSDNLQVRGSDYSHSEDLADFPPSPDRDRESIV

rKv2.1 = target: T1, rKv2.1 (Rattus norvegicus, UniProt P15387); test: Patch-clamp block of rKv2.1 channels expressed in Cos-7 cells; conditions: 10 nM
T1 sequence (P15387 1-857): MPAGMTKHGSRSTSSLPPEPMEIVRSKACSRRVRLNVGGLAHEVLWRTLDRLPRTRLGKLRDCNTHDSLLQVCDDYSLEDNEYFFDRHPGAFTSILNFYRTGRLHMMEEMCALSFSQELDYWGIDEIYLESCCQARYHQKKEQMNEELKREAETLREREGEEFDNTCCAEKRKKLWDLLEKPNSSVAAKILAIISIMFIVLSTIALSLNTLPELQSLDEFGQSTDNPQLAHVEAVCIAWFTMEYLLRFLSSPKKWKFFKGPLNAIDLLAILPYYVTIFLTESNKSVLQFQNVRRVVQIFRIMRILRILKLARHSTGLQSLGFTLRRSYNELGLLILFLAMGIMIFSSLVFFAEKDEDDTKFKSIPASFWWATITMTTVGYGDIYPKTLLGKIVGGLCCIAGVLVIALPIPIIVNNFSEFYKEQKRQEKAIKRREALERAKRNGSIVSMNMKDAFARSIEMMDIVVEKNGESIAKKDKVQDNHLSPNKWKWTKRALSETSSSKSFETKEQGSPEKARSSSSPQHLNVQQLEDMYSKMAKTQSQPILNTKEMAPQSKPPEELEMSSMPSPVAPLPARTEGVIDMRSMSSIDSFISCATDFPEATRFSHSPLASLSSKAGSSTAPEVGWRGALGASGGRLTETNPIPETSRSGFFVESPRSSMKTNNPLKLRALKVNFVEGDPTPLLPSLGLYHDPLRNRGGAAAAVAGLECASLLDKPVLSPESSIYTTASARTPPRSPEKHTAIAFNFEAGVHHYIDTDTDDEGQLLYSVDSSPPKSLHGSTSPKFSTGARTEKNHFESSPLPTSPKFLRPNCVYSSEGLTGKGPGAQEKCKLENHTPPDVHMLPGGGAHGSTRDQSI

hIKCa1 = hIKCa1 (Homo sapiens, UniProt O15554); test: Patch-clamp block of recombinant hIKCa1 channels expressed in Cos-7 cells (voltage ramps)
Sequence of hIKCa1 (O15554 whole entry): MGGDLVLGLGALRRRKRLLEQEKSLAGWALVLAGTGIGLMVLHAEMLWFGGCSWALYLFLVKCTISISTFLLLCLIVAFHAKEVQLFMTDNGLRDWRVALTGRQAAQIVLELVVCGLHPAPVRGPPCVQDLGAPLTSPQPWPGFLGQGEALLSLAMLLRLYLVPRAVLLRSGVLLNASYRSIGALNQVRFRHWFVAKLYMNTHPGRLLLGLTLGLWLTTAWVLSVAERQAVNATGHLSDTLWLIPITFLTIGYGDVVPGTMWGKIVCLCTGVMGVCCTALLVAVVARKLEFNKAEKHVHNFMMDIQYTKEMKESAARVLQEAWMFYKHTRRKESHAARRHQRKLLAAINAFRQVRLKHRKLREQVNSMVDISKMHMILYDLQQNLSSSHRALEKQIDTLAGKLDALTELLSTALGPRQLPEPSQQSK

hKv1.4 = hKv1.4 (Homo sapiens, UniProt P22459); test: Patch-clamp block of fast inactivation-removed hKv1.4 (Kv1.4ΔN) channels in Cos-7 cells; conditions: 10 nM
Sequence of hKv1.4 (P22459 148-653): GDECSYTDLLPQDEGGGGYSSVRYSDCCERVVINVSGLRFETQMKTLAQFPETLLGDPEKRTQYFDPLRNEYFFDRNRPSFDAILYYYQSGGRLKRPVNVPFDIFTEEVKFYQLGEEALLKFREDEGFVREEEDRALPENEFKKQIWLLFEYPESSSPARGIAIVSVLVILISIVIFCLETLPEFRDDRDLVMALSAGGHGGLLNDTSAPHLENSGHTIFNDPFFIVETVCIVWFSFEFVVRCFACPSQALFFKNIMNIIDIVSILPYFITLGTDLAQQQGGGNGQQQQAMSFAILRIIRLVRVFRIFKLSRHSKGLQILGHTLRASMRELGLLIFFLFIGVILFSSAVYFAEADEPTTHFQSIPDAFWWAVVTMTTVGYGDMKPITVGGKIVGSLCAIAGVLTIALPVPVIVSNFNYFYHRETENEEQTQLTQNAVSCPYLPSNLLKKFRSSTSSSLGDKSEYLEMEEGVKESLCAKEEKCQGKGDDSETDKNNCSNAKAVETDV

hERG channel = hERG channel (Homo sapiens, UniProt Q12809); test: Patch-clamp block of hERG channels stably expressed in HEK-293 cells; conditions: 10 nM
mKv1.1 = mKv1.1 (Mus musculus, UniProt P16388); test: Patch-clamp block of mKv1.1 channels stably expressed in L929 cells; conditions: for remaining current fraction (RCF) mKv1.1: n=3
Sequence of mKv1.1 (P16388 whole entry): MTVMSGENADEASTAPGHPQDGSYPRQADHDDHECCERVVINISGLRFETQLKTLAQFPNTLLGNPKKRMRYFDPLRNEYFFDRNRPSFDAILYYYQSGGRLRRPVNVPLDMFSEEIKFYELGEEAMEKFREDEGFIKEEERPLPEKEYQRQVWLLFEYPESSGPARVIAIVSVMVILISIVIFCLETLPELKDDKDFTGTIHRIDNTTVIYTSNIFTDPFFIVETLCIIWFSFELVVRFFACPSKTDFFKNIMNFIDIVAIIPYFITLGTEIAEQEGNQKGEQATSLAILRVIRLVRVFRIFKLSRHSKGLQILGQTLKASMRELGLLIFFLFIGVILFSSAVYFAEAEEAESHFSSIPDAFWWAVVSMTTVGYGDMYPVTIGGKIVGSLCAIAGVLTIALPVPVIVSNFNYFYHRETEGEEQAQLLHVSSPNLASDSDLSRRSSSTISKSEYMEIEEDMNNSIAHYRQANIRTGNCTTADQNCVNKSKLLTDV

rats = test: Delayed-type hypersensitivity (DTH) response in DNFB-sensitized rats, ear thickness; format: in vivo, rat; conditions: single dose of 10 micrograms, 24 hours
Text: In order to perform this kind of experiment we set up a protocol to study DTH response in rats. The system used is basically that described by Phanuphak et al., 1974. In brief, two groups of rats (3 or 5 animals each) were sensitized by applications of 40 microliters of 0.7% DNFB in 4:1 proportion of acetone: olive oil solution, in two consecutive days (days one and two), after gentle shaving of the dorsal-back region of the animals. After 7 days of the second application of the sensitizing solution, the animals were challenged by a single application of 20 microliter of 0.4% DNFB dissolved in the acetone: olive oil solution described above. This solution was spread over the dorsal surface of the right-side ears and allowed to dry, whereas the left-side ears were spread with only the vehicle solution (acetone:olive oil). On day eight of the protocol, a subcutaneous injection of 100 microliter of phosphate saline buffer pH 7.8 (PBS) was applied to each one of the animals used as control, whereas to the experimental group of rats, an amount of 10 micrograms pure Vm24 in 100 microliters PBS was subcutaneously applied. The thickness of both ears of all animals was measured 24 hours after of the application of Vm24.

hKv1.3 channels = hKv1.3 channels (Homo sapiens, UniProt P22001); test: Whole-cell patch-clamp block of hKv1.3 channels endogenously expressed in human peripheral blood T cells; format: cell-based; set-up: channels expressed endogenously in human peripheral blood T cells; endogenous in cells; host or cells: human peripheral blood T lymphocytes from healthy volunteers, PHA-stimulated
Sequence of hKv1.3 channels (P22001 whole entry): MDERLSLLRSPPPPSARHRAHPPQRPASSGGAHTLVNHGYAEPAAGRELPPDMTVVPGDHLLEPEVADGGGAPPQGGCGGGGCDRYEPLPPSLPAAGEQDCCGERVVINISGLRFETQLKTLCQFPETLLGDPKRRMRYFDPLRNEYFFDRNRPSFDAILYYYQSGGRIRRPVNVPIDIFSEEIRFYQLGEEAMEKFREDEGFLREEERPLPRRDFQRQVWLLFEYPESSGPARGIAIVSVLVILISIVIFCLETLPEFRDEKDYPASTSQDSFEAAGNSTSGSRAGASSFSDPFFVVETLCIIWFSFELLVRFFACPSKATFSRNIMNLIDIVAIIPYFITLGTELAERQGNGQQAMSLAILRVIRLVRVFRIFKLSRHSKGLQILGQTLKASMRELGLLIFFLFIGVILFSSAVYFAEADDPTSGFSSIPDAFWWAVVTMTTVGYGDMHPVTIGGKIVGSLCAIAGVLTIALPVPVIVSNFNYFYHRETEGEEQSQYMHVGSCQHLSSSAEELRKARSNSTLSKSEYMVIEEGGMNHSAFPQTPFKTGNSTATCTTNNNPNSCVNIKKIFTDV

hKv1.2 = hKv1.2 (Homo sapiens, UniProt P16389); test: Patch-clamp block of hKv1.2 channels expressed in Cos-7 cells; conditions: for remaining current fraction (RCF) hKv1.2: n=3
Sequence of hKv1.2 (P16389 whole entry): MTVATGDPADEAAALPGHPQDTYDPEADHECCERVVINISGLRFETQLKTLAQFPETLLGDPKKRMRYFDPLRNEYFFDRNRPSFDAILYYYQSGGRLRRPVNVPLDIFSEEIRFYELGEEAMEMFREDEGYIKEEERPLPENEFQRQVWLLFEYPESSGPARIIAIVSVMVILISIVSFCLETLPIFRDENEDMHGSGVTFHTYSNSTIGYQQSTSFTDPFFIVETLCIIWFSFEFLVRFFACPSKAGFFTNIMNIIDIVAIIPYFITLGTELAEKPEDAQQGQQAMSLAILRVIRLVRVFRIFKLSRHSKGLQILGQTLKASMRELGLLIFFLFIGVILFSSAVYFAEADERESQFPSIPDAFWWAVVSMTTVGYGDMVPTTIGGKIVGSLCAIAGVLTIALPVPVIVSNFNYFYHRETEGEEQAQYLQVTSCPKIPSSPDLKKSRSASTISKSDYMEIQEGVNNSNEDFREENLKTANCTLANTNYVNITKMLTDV

hBK (KCa1.1) = hBK (KCa1.1) (Homo sapiens, UniProt Q12791); test: Patch-clamp block of hBK (KCa1.1) channels expressed in tsA-201 cells; conditions: 10 nM
hKv1.5 = hKv1.5 (Homo sapiens, UniProt P22460); test: Patch-clamp block of hKv1.5 channels stably expressed in MEL cells; conditions: 10 nM

CC[C@H](C)[C@H](NC(=O)[C@H](C)NC(=O)[C@H](C)NC(=O)[C@H](C)N)C(=O)N[C@@H](CO)C(=O)N[C@H]1CSSC[C@@H]2NC(=O)[C@H](CCCCN)NC(=O)CNC(=O)[C@H](CC(N)=O)NC(=O)[C@H](CCCCN)NC(=O)[C@@H]3CSSC[C@@H](C(N)=O)NC(=O)[C@H](Cc4ccc(O)cc4)NC(=O)[C@H](Cc4ccc(O)cc4)NC(=O)[C@@H]4CSSC[C@H](NC(=O)[C@H](CCCCN)NC(=O)[C@@H]5CCCN5C(=O)[C@@H]5CCCN5C(=O)[C@H](CSSC[C@H](NC(=O)[C@H](CCCCN)NC(=O)[C@H](CCCNC(=N)N)NC(=O)[C@H](CC(N)=O)NC(=O)[C@H](CCSC)NC2=O)C(=O)N[C@@H](CCCCN)C(=O)N4)NC(=O)[C@H](CCC(=O)O)NC(=O)[C@@H]2CCCN2C(=O)[C@H](CO)NC(=O)CNC(=O)[C@H](C(C)C)NC1=O)C(=O)N[C@@H](CCCNC(=N)N)C(=O)N[C@@H](C)C(=O)N[C@@H](CCC(N)=O)C(=O)NCC(=O)N3 [Vm24]
toxicity / symptoms of intoxication in mice (mice; up to 200 microgram per mouse of 20 grams (10,000 microgram/kilogram)): not toxic; also recorded: no observable symptoms of intoxication
toxicity in experimental animals (mice; up to 10,000 microgram per 20 gram mouse weight (so in the source)): not toxic
effect on NaV1.5 current (hNaV1.5): lack of blockade; also recorded: does not modify
effect on rKv2.1 current (rKv2.1): lack of blockade; also recorded: does not modify
Kd (hIKCa1): ~14 nM
selectivity for hKv1.3 over hIKCa1 (hIKCa1): ≥ 4500 fold
block of hIKCa1 (hIKCa1; 1 nM): practically does not blocks
time to reach equilibrium block of hIKCa1 (hIKCa1; 10 nM): 4.5 min
inhibition at 0.01 µM (hIKCa1; COS-7, read-out: current inhibition hIKCa1, 10 nM): ~40%
remaining activity at 0.01 µM (hIKCa1; COS-7, read-out: slope s of current-voltage relationship, % of control): ~52%
reversal of hIKCa1 block on wash-out (hIKCa1; after 10 nM, in 2.5 min toxin-free solution): fully reversed
effect on hKv1.4 current (hKv1.4): practically insensitive; also recorded: does not modify
effect on hERG current (hERG channel): lack of blockade; also recorded: does not modify
Kd (mKv1.1): 30 to 40 nM
selectivity for hKv1.3 over mKv1.1 (mKv1.1): ≥ 10000 fold
remaining current fraction (RCF) mKv1.1 (mKv1.1; 1 nM): 0.97±0.02
time for equilibrium block of mKv1.1 to develop (mKv1.1; 10 nM): 6 min
remaining current fraction (RCF) mKv1.1 (mKv1.1; 10 nM): 0.80±0.02
inhibition at 0.01 µM (mKv1.1; L929, read-out: current inhibition mKv1.1): 20 to 50%
inflammation of the ear (thickness, unchallenged ear subtracted) (rats): no more than 0.10 mm
block of hKv1.3 current (hKv1.3 channels; 3 pM): over 50%
level at which loss of current saturates, % of the peak recorded in control solution (hKv1.3 channels; 3 pM, 10.5-minute application): ~36%
block of hKv1.3 current (words) (hKv1.3 channels; 0.3 nM): full block
block of hKv1.3 current (words) (hKv1.3 channels; 1 nM): completely disappeared; also recorded: full block; also recorded: blocks hKv1.3 channels completely; also recorded: almost completely blocked
blockage of hKv1.3 current (hKv1.3 channels; 10 nM): 100%
time for equilibrium block of hKv1.3 to develop (hKv1.3 channels; 10 nM): 3.5 min
remaining current fraction (RCF) hKv1.3 (hKv1.3 channels; 10 nM, mean±SEM, n=3): 0.01±0.01
fraction of blocked hKv1.3 current recovered (hKv1.3 channels; 30 minute washout after 3 pM): one third
Hill coefficient n (hKv1.3 channels; dose-response fit, hKv1.3): ~1
Kd (hKv1.3 channels; fit of dose-response of remaining current fraction, human T cells, stated to be an overestimate of the real Kd, read-out: Kd (dissociation constant) for hKv1.3): 0.0029 nM and < 0.003 nM
off rate (hKv1.3 channels; from wash-out time constant after 3 pM): ~0.00026 s⁻¹
Kd (hKv1.2): 5 to 10 nM
selectivity for hKv1.3 over hKv1.2 (hKv1.2): ≥ 1500 fold
remaining current fraction (RCF) hKv1.2 (hKv1.2; 1 nM): 0.81±0.015
time for equilibrium block of hKv1.2 to develop (hKv1.2; 10 nM): 5.5 min
remaining current fraction (RCF) hKv1.2 (hKv1.2; 10 nM): 0.54±0.08
reversibility of hKv1.2 block (hKv1.2; after 10 nM, wash-out): not fully reversible
effect on hBK current (hBK (KCa1.1)): lack of blockade; also recorded: does not modify
effect on hKv1.5 current (hKv1.5): practically insensitive; also recorded: does not modify
